40 compounds from US10538532B2, “Hepatitis B antiviral agents” (ENANTA PHARMACEUTICALS, INC., priority 2016, dated 2020) can be followed below.

As usually defined, the EC50 is the concentration needed to bring the measured effect to its halfway point. What is called CC50 is the concentration at which the toxic effect on the cells reaches its halfway point. A higher CC50 goes with lower toxicity to the cells.

The subject of one series is HBV. Briefly: HepAD38 antiviral assay: reduction of viral product accumulation (virion DNA by qPCR, HBsAg or HBeAg by ELISA). In kind it is cell-based, hepatitis B virus. Conditions: Hepatitis B virus, HePAD38, 120 h, HepAD38 cells, five days after compound addition; concentration reducing viral product accumulation by 50% relative to no drug controls; read-out: HepAD38 EC50. The gist of the method: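 EC50 values represent 50% reduction of viral product accumulation in lysates or supernatants relative to untreated controls, with virion DNA read by qPCR and HBsAg/HBeAg by ELISA. Measurements followed 5 days of treatment, or 8 days with compound renewed on d2 and d5. Cells were tetracycline-depleted HepAD38 at 35,000/well, dosed with a 1:200 dilution of DMSO stocks.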

Series [1] is described as follows: Compound toxicity, ATPLite total ATP levels. Conditions: human, HepAD38 cells, three days after compound addition, concentration reducing total ATP levels by 50% relative to no drug controls. In kind it is cell-based. Here is the method: Methods: HepAD38 cells are maintained as previously reported (Ladner et al, Antimicrob. Agents Chemother. 1997, […], 1715). Briefly, cells are passaged upon attaining confluency in DMEM/F12 media in the presence of 10% FBS, Penn/Strep, 250 μg/mL G418, and 1 ug/ml tetracycline. Novel compounds are screened by first washing cells three times with PBS to remove tetracycline, and plating in 96 well plates at 35,000 cells/well. Compounds dissolved in DMSO are then diluted 1:200 into wells containing cells. Five days after compound addition, material is harvested for analysis. For an extended 8 day analysis, cells are plated and treated as described above, but media and compound are refreshed on d2 and d5 post initial treatment.
Compound toxicity is evaluated by seeding cells at 15,000 cells/well and treating with compound as described above.
(In general: ATP-based viability assays read luminescence as a measure of living cells.)

For the compound `O=C(Nc1cc(F)c(F)c(F)c1)c1ccc(Cl)c(S(=O)(=O)[C@H]2C3CC[C@H]2C[C@H](Cn2ccnc2)C3)c1` [Example 312], the EC50 with HBV was below 100 nM. For the same compound, the CC50 at 3 days in series [1] (class symbols) was 10000 to 25000 nM.
Taken in the same sequence, the figures for `CC(=O)[C@]1(O)CC2CC[C@@H](C1)[C@H]2S(=O)(=O)c1cc(C(=O)Nc2cc(F)c(F)c(F)c2)ccc1Cl` [Example 150] were below 100 nM and 10000 to 25000 nM.
Taken in the same sequence, the figures for `O=C(Nc1cc(F)c(F)c(F)c1)c1ccc(Cl)c(S(=O)(=O)Cc2ccncc2)c1` [Example 46] were 100 to 400 nM and above 25000 nM.
The corresponding values for `O=C(Nc1cc(F)c(F)c(F)c1)c1ccc(Cl)c(S(=O)(=O)[C@H]2C3CC[C@H]2C[C@@H](c2ncc[nH]2)C3)c1` [Example 283] are 100 to 400 nM and below 10000 nM.
As for `O=C(Nc1cc(F)c(F)c(F)c1)c1ccc(Cl)c(S(=O)(=O)[C@H]2CC3CCC(C2)[C@]3(O)CNS(=O)(=O)C2CC2)c1` [Example 294], in the series with HBV, the 50% effective concentration (EC50) was below 100 nM. In series [1] (numeric bounds), the CC50 at 3 days is above 6250 nM.
For the compound `O=C1NC[C@]2(O1)C1CCC2C[C@H](S(=O)(=O)c2cc(C(=O)Nc3cc(F)c(F)c(F)c3)ccc2Cl)C1` [Example 274], the EC50 with HBV was below 100 nM. The compound also showed a half-maximal cytotoxic concentration (CC50) at 3 days in series [1] (class symbols) above 25000 nM.
`NC[C@@]1(O)CC2CC[C@@H](C1)[C@H]2S(=O)(=O)c1cc(C(=O)Nc2cc(F)c(F)c(F)c2)ccc1Cl` [Example 277]: the EC50 in the series with HBV is 100 to 400 nM. In series [1] (class symbols), this compound displayed a CC50 at 3 days below 10000 nM.
Regarding `C[C@]1(S(=O)(=O)c2cc(C(=O)Nc3cc(F)c(F)c(F)c3)ccc2Cl)CC[C@H](O)CC1` [Example 17], the EC50 with HBV was 100 to 400 nM. The same compound came in with a CC50 at 3 days in series [1] (class symbols) above 25000 nM.
The corresponding values for `N#CC[C@]1(O)C2CCC1C[C@@H](S(=O)(=O)c1cc(C(=O)Nc3cc(F)c(F)c(F)c3)ccc1Cl)C2` [Example 275] are below 100 nM and above 25000 nM.
Taken in the same sequence, the figures for `CS(=O)(=O)NC[C@]1(O)CC2CC[C@@H](C1)[C@H]2S(=O)(=O)c1cc(C(=O)Nc2cc(F)c(F)c(F)c2)ccc1Cl` [Example 307] were below 100 nM and above 25000 nM.
The corresponding values for `O=C(Nc1cc(F)c(F)c(F)c1)c1ccc(Cl)c(S(=O)(=O)[C@H]2C3CC[C@H]2C[C@](O)(COCc2ccccn2)C3)c1` [Example 317] are below 100 nM and below 10000 nM.
For `O=C(Nc1cc(F)c(F)c(F)c1)c1ccc(Cl)c(S(=O)(=O)[C@H]2CC[C@@H](O)CC2)c1` [Example 4], the concentration for a half-maximal effect (EC50) in the series on HBV fell in the range of 100 to 400 nM. The half-maximal cytotoxic concentration (CC50) at 3 days in series [1] (class symbols) is above 25000 nM.
For `O=C(Nc1cc(F)c(F)c(F)c1)c1ccc(Cl)c(S(=O)(=O)[C@]2(F)CC[C@H](O)CC2)c1` [Example 8], the 50% effective concentration (EC50) in the series on HBV was 100 to 400 nM. Further, the CC50 at 3 days in series [1] (class symbols) was 10000 to 25000 nM.
The corresponding values for `CS(=O)(=O)N[C@@H]1C2CC[C@H]1C[C@H](S(=O)(=O)c1cc(C(=O)Nc3cc(F)c(F)c(F)c3)ccc1Cl)C2` [Example 310] are below 100 nM and above 25000 nM.
Take `N#C[C@H]1CC2CC[C@@H](C1)[C@H]2S(=O)(=O)c1cc(C(=O)Nc2cc(F)c(F)c(F)c2)ccc1Cl` [Example 284]: the EC50 in the series on HBV is below 100 nM. The 50% cytotoxic concentration (CC50) at 3 days in series [1] (numeric bounds) is above 3120 nM.
As for `O=C(Nc1cc(F)c(F)c(F)c1)c1ccc(Cl)c(S(=O)(=O)[C@H]2CC3CCC(C2)[C@@]3(O)c2nccs2)c1` [Example 301], the 50% effective concentration (EC50) in the series with HBV is above 400 nM. In series [1] (class symbols), this compound registered a 50% cytotoxic concentration (CC50) at 3 days of 10000 to 25000 nM.
As for `CC[C@]1(O)C2CCC1C[C@@H](S(=O)(=O)c1cc(C(=O)Nc3cc(F)c(F)c(F)c3)ccc1Cl)C2` [Example 252], the 50% effective concentration (EC50) in the series on HBV is below 100 nM. In series [1] (numeric bounds), this compound displayed a CC50 at 3 days above 6250 nM.
With `O=C(Nc1cc(F)c(F)c(F)c1)c1ccc(Cl)c(S(=O)(=O)[C@H]2CC3CCC(C2)[C@H]3c2ncc[nH]2)c1` [Example 303], in the series on HBV, the EC50 was below 100 nM. The CC50 at 3 days in series [1] (class symbols) was below 10000 nM.
As for `C[C@]1(O)C2CCC1C[C@@H](S(=O)(=O)c1cc(C(=O)Nc3cc(F)c(F)c(F)c3)ccc1Cl)C2` [Example 246], in the series on HBV, the EC50 is 100 to 400 nM. In series [1] (class symbols), the 50% cytotoxic concentration (CC50) at 3 days is 10000 to 25000 nM.
In the case of `N#C[C@]1(CO)CC2CC[C@@H](C1)[C@H]2S(=O)(=O)c1cc(C(=O)Nc2cc(F)c(F)c(F)c2)ccc1Cl` [Example 292], the EC50 in the series with HBV is below 100 nM. Further, the CC50 at 3 days in series [1] (class symbols) fell in the range of 10000 to 25000 nM.
For the compound `C=C[C@]1(O)CC2CC[C@@H](C1)[C@H]2S(=O)(=O)c1cc(C(=O)Nc2cc(F)c(F)c(F)c2)ccc1Cl` [Example 267], the EC50 in the series on HBV was below 100 nM. In addition, in series [1] (class symbols), the cytotoxic concentration (CC50) at 3 days is above 25000 nM.
Turning to `[N-]=[N+]=N[C@]1(CO)CC2CC[C@@H](C1)[C@H]2S(=O)(=O)c1cc(C(=O)Nc2cc(F)c(F)c(F)c2)ccc1Cl` [Example 287], the concentration giving a half-maximal response (EC50) in the series with HBV was 100 to 400 nM. The compound further registered a CC50 at 3 days in series [1] (class symbols) above 25000 nM.
The corresponding values for `O=C(Nc1cc(F)c(F)c(F)c1)c1ccc(Cl)c(S(=O)(=O)[C@H]2CC3CCC(C2)[C@]3(O)c2ccccn2)c1` [Example 308] are below 100 nM and above 25000 nM.
Taken in the same sequence, the figures for `CN(C)C[C@]1(O)CC2CC[C@@H](C1)[C@H]2S(=O)(=O)c1cc(C(=O)Nc2cc(F)c(F)c(F)c2)ccc1Cl` [Example 154] were below 100 nM and below 10000 nM.
The corresponding values for `[N-]=[N+]=NC[C@]1(O)C2CCC1C[C@@H](S(=O)(=O)c1cc(C(=O)Nc3cc(F)c(F)c(F)c3)ccc1Cl)C2` [Example 257] are below 100 nM and above 25000 nM.
Turning to `[N-]=[N+]=NC[C@@]1(O)CC2CC[C@@H](C1)[C@H]2S(=O)(=O)c1cc(C(=O)Nc2cc(F)c(F)c(F)c2)ccc1Cl` [Example 271], the EC50 in the series with HBV is below 100 nM. The compound also showed a CC50 at 3 days in series [1] (numeric bounds) above 12500 nM.
With `O=C(Nc1cc(F)c(F)c(F)c1)c1ccc(Cl)c(S(=O)(=O)[C@H]2C3CC[C@H]2C[C@](O)(c2ncc(-c4ccccc4)[nH]2)C3)c1` [Example 330], the EC50 in the series on HBV was below 100 nM. This compound returned a cytotoxic concentration (CC50) at 3 days in series [1] (class symbols) below 10000 nM.
Taken in the same sequence, the figures for `CC(=O)NC[C@@]1(O)CC2CC[C@@H](C1)[C@H]2S(=O)(=O)c1cc(C(=O)Nc2cc(F)c(F)c(F)c2)ccc1Cl` [Example 280] were 100 to 400 nM and above 25000 nM.
`Cn1ccnc1[C@]1(O)CC2CC[C@@H](C1)[C@H]2S(=O)(=O)c1cc(C(=O)Nc2cc(F)c(F)c(F)c2)ccc1Cl` [Example 329]: in the series on HBV, the EC50 is below 100 nM. This compound had a CC50 at 3 days in series [1] (numeric bounds) above 6250 nM.
Take `COC(=O)N[C@H](C(=O)NC[C@@]1(O)CC2CC[C@@H](C1)[C@H]2S(=O)(=O)c1cc(C(=O)Nc2cc(F)c(F)c(F)c2)ccc1Cl)C(C)C` [Example 288]: the half-maximal effective concentration (EC50) in the series on HBV lay within 100 to 400 nM. The compound further registered a cytotoxic concentration (CC50) at 3 days in series [1] (class symbols) of 10000 to 25000 nM.
The corresponding values for `O=C(Nc1cc(F)c(F)c(F)c1)c1ccc(Cl)c(S(=O)(=O)CCCO)c1` [Example 7] are above 400 nM and above 25000 nM.
With `COC(=O)N1C[C@]2(CC3CC[C@@H](C2)[C@H]3S(=O)(=O)c2cc(C(=O)Nc3cc(F)c(F)c(F)c3)ccc2Cl)OC1=O` [Example 289], the half-maximal effective concentration (EC50) in the series with HBV was in the range of 100 to 400 nM. The compound also showed a CC50 at 3 days in series [1] (numeric bounds) above 12500 nM.
As for `O=C1NC[C@]2(CC3CC[C@@H](C2)[C@H]3S(=O)(=O)c2cc(C(=O)Nc3cc(F)c(F)c(F)c3)ccc2Cl)O1` [Example 285], the EC50 with HBV lay within 100 to 400 nM. Further, in series [1] (class symbols), the CC50 at 3 days is above 25000 nM.
In the case of `COC(=O)NC1CC2CC[C@@H](C1)[C@H]2S(=O)(=O)c1cc(C(=O)Nc2cc(F)c(F)c(F)c2)ccc1Cl` (some centres unmarked) [Example 321], the concentration giving a half-maximal response (EC50) with HBV was below 100 nM. In addition, the CC50 at 3 days in series [1] (class symbols) is above 25000 nM.
Taken in the same sequence, the figures for `O=C(Nc1cc(F)c(F)c(F)c1)c1ccc(Cl)c(S(=O)(=O)[C@H]2C3CC[C@H]2C[C@](O)(c2cc(-c4ccccc4)on2)C3)c1` [Example 220] were below 100 nM and below 10000 nM.
Taken in the same sequence, the figures for `N#CC[C@]1(O)CC2CC[C@@H](C1)[C@H]2S(=O)(=O)c1cc(C(=O)Nc2cc(F)c(F)c(F)c2)ccc1Cl` [Example 291] were below 100 nM and 10000 to 25000 nM.
Regarding `O=C(Nc1cc(F)c(F)c(F)c1)c1ccc(Cl)c(S(=O)(=O)[C@H]2CC3CCC(C2)[C@]3(O)c2cccnc2)c1` [Example 331], the EC50 in the series with HBV is below 100 nM. This compound also gave a CC50 at 3 days in series [1] (class symbols) of 10000 to 25000 nM.
Taken in the same sequence, the figures for `O=C(Nc1cc(F)c(F)c(F)c1)c1ccc(Cl)c(S(=O)(=O)[C@]2(F)CC[C@@H](O)CC2)c1` [Example 9] were 100 to 400 nM and 10000 to 25000 nM.
The corresponding values for `O=C(Nc1cc(F)c(F)c(F)c1)c1ccc(Cl)c(S(=O)(=O)[C@H]2C3CCC2C[C@](O)(CO)C3)c1` [Example 60] are below 100 nM and above 25000 nM.
Regarding `[N-]=[N+]=NC[C@]1(O)C2CCC1C[C@H](S(=O)(=O)c1cc(C(=O)Nc3cc(F)c(F)c(F)c3)ccc1Cl)C2` [Example 258], the EC50 in the series with HBV is below 100 nM. The same compound showed a CC50 at 3 days in series [1] (numeric bounds) above 12500 nM.
